Earlier results, collected in patent US6399640B1, “Arylthiazolidinedione and aryloxazolidinedione derivatives” (Merck & Co., Inc., priority 1999, dated 2002).

Key:
PPARγ = conditions: subsequent studies; Willson et al, J. Med. Chem. 1996
ob/ob mice = conditions: Cantello et al, J. Med. Chem. 1994
diabetic mouse model = conditions: Sohda et al, Chem. Pharm. Bull. 1982

## CN(CCOc1ccc(C2SC(=O)NC2=O)cc1)c1nc2ccccc2o1 (stereo not drawn) [(1)]
PPARγ
  amounts required for PPARγ activation: relatively high amounts
ob/ob mice
  antihyperglycemic activity: no antihyperglycemic activity

## O=C1NC(=O)C(c2ccc(OCCc3ccccc3)cc2)S1 (stereo not drawn) [(2), 5-[4-(phenylethoxy)phenyl]-2,4-thiazolidinedione]
Diabetic mouse model
  antihyperglycemic effect: no antihyperglycemic effect
